Laboratory results from paper PMC8458285, “The Acinetobacter baumannii disinfectant resistance protein, AmvA, is a spermidine and spermine efflux pump” (Communications Biology, 2021).

What was measured:
AmvR [1] = molecular target: T1, AmvR (Acinetobacter baumannii, UniProt A0A0D5YGI2); assay: nanoDSF isothermal analysis (Kd at […] °C); weak, DSF shift only +[…] °C; type: binding
T1 construct: gene ABUW_1678; AmvR (amvR amplified from A. baumannii ATCC17978 genomic DNA) carrying a C-terminal hexahistidine tag; dimer in solution

AmvR [2] = molecular target: T1, AmvR; assay: nanoDSF isothermal analysis (Kd at […] °C); DSF shift +[…] °C; type: binding
[3] = molecular target: AmvR (Acinetobacter baumannii ATCC17978); assay: SEC; analytical SEC on Superdex 200 10/300 GL; elution volume compared with MW standards (HMW and LMW calibration sets)

Compound | Kd (AmvR [2]) [µM] | further results
NCCCCN [putrescine] | – | Kd (AmvR [1]): 260 µM
NCCCCNCCCN [spermidine] | 9.5 | –
NCCCNCCCCNCCCN [spermine] | 5.4 | –
AmvR (natural protein) | – | stoichiometry N [3]: 2
